One block for each compound: values may come before it.
Experiments:
[1] = tested on: deoxycorticosterone acetate (DOCA)/salt-induced model of FSGS; test: DOCA/salt-induced mouse model of FSGS: renoprotection, body weight, blood pressure, organ/body weight ratios; type: in vivo, mice (129/sv strain); conditions: DOCA/salt mice, 4 weeks
Method: 10-nitro-9(E)-octadec-9-enoic acid, given orally after onset of renal injury, was evaluated for efficacy in a model for Focal Segmental Glomerular Sclerosis (FSGS) in humans. […] Mice were uni-nephrectomized and, after two weeks, implanted subcutaneously with DOCA (50 mg, 21-day release) or placebo sustained release pellets, with pellet replacement 3 weeks later. All groups, except the sham control group, also received 1% NaCl in tap water. 10-nitro-9(E)-octadec-9-enoic acid (daily oral gavage, 2.5 or 12.5 mg/kg) or enalapril (20 mg/kg/day in drinking water) treatments began 2 weeks after the first DOCA implantation and continued for 4 weeks. Enalapril was included for comparison because it is used as standard of care for FSGS and this is a positive control for the model.
(§1) Induction of model: Male mice (129/sv strain) were purchased from Taconic Labs. The animals were uninephrectomized (Unx) at 6 weeks of age by the vendor and shipped one week after surgery. At 2 weeks post Unx, a DOCA or placebo pellet (21-day release pellets, 50 mg/pellet, Innovative Research of America, Sarasota, Fla.) was implanted s.c. All mice were then placed on a semisynthetic diet which contained a moderate fat content and a low phytoestrogen/anti-oxidant level, which approximates a normal human diet (4). A second DOCA or placebo pellet was implanted three weeks later.
(§2) Treatment: Mice were treated with placebo, 10-nitro-9(E)-octadec-9-enoic acid at a dose of 2.5 and 12.5 mg/kg, or enalapril (standard of care) for 4 weeks by oral gavage starting 2 weeks after the first DOCA implantation. One percent NaCl in tap water was given to each group except the sham control group. Body weight was measured weekly, and doses were readjusted based on the current body weight. Urine and blood samples were collected prior to treatment and at week 2 and 4 of treatment. Mice were terminated at week 4. Data is presented as the mean+SEM for the number of animals listed in each group.

[2] = tested on: deoxycorticosterone acetate (DOCA)/salt-induced model of FSGS; test: DOCA salt study: serum and urine analyses; type: in vivo, mice (129/sv strain); conditions: DOCA/salt mice, enalapril 20 mg/kg/d in drinking water
Method: Induction of model: Male mice (129/sv strain) were purchased from Taconic Labs. The animals were uninephrectomized (Unx) at 6 weeks of age by the vendor and shipped one week after surgery. At 2 weeks post Unx, a DOCA or placebo pellet (21-day release pellets, 50 mg/pellet, Innovative Research of America, Sarasota, Fla.) was implanted s.c. All mice were then placed on a semisynthetic diet which contained a moderate fat content and a low phytoestrogen/anti-oxidant level, which approximates a normal human diet (4). A second DOCA or placebo pellet was implanted three weeks later. […] One percent NaCl in tap water was given to each group except the sham control group. Body weight was measured weekly, and doses were readjusted based on the current body weight. Urine and blood samples were collected prior to treatment and at week 2 and 4 of treatment. Mice were terminated at week 4. Data is presented as the mean+SEM for the number of animals listed in each group. Serum and urine analyses: Blood samples were collected from the retro-orbital sinus and samples were separated to serum. Serum and urine creatinine (enzymatic assay), blood urea nitrogen (BUN), and serum cholesterol were measured using a Cobas 400 plus bioanalyzer (Roche Diagnostics, IN). Urine samples were collected for 24 h using metabolic cages. Urine albumin was measured by immunoassay Albuwell M (Exocell Inc., Philadelphia, Pa.). Immuno-ELISA according to manufacturer's instructions was used to measure urine nephrin (Exocell Inc., Philadelphia, Pa.) and MCP-1 (Thermal Scientific, Waltham, Mass.). Kim-1 was measured using the E-90KIM Mouse ELISA Kit (Immunology Consultants Laboratory, Portland, Oreg.). Statistical analyses for serum and urine data was performed using a two-tailed Student's t-test.

[3] = tested on: deoxycorticosterone acetate (DOCA)/salt-induced model of FSGS; test: DOCA salt study: glomerular filtration rate (inulin); type: in vivo, mice (129/sv strain); conditions: DOCA/salt mice; enalapril 20 mg/kg/d in drinking water, 4 week timepoint
Method: Induction of model: Male mice (129/sv strain) were purchased from Taconic Labs. The animals were uninephrectomized (Unx) at 6 weeks of age by the vendor and shipped one week after surgery. At 2 weeks post Unx, a DOCA or placebo pellet (21-day release pellets, 50 mg/pellet, Innovative Research of America, Sarasota, Fla.) was implanted s.c. All mice were then placed on a semisynthetic diet which contained a moderate fat content and a low phytoestrogen/anti-oxidant level, which approximates a normal human diet (4). A second DOCA or placebo pellet was implanted three weeks later. […] One percent NaCl in tap water was given to each group except the sham control group. Body weight was measured weekly, and doses were readjusted based on the current body weight. Urine and blood samples were collected prior to treatment and at week 2 and 4 of treatment. Mice were terminated at week 4. Data is presented as the mean+SEM for the number of animals listed in each group. Glomerular Filtration Rate: Glomerular filtration rate (GFR) was performed at the 4 week timepoint using a FIT-GFR test kit for inulin according to manufacturer's instructions (BioPal, Worcester, Mass.). […] Serum was isolated and quantified by an inulin ELISA. Inulin serum clearance was determined by nonlinear regression using a one phase exponential decay formula according to manufacturer's instructions.

[4] = tested on: deoxycorticosterone acetate (DOCA)/salt-induced model of FSGS; test: DOCA salt study: histological assessment of kidney; type: in vivo, mice (129/sv strain); conditions: DOCA/salt mice; enalapril 20 mg/kg/d in drinking water, 4 weeks
Method: as §1, §2
Histological Assessment: Formalin fixed, paraffin embedded kidneys were sectioned at 3 microns and stained with hematoxylin and eosin (H&E), periodic acid-Schiff (PAS) and Masson's Trichrome for histological analysis. Slides were blindly evaluated by an experienced pathology investigator. Glomerular and tubular pathology, interstitial inflammation and interstitial fibrosis were semi-quantitatively scored on a scale of 0-4 as follows: 0=normal; 1=mild; 2=moderate; 3=marked; 4=severe.
Glomerular hypertrophy was evaluated by measuring glomerular area and expressed as a mean value of 50 glomeruli per kidney. Glomerular hypertrophy is an important marker for diabetic and hypertensive-mediated chronic kidney disease. […] This finding is consistent with unchanged gene expression profile for podocyte markers (Table 2), and seems reasonable given that the disease was relatively modest.

[5] = tested on: deoxycorticosterone acetate (DOCA)/salt-induced model of FSGS; test: DOCA salt study: RT-PCR analysis of kidney gene expression; type: in vivo, mice (129/sv strain); conditions: DOCA/salt mice kidney
Method: as §1, §2
RT-PCR Analysis of Gene Expression: A slice of kidney from each mouse was placed in Trizol solution (Invitrogen) immediately after harvesting and stored at −80° C. until analysis. Tissues were homogenized using a bead mill in 0.5 ml of Trizol solution and total RNA was extracted with chloroform (Sigma) and purified using standard RNeasy mini kit (Qiagen), with on column DNase 1 (Qiagen) digestion to avoid non-specific fluorescence emission derived from the recognition of contaminating genomic DNA by the probe, according to manufacturer's recommendation. RNA samples were eluted in 30 μl of nuclease-free water and quantified using a Nanodrop. cDNA was generated from 2 μg of RNA by using Clontech Sprint PowerScript reagents according to manufacturer's protocol. Fluorogenic probes specific for genes assayed in the report were purchased from Applied Biosystems. PCR amplification and analysis of PCR reaction were performed and monitored using an ABI Prism 7900HT Sequence Detection System (TaqMan, Perkin-Elmer Applied Biosystem). Data analysis was carried out by using the Sequence Detection Systems v2.3 program (Applied Biosystems). For each cDNA sample the Ct value of each target sequence was normalized to reference gene (Ribosomal RNA-18S), and shown as fold changes to control group. Statistical analyses for gene expression data was performed using a two-tailed Student's t-test.

[6] = tested on: deoxycorticosterone acetate (DOCA)/salt-induced model of FSGS; test: DOCA salt study: urinary isoprostane and tetranor-PGDM by LC-MS; type: in vivo, mice (129/sv strain); conditions: DOCA/salt mice; end time point
Method: as §1, §2
Isoprostanes are a unique series of prostaglandin-like compounds formed in vivo via a non-enzymatic mechanism involving the free radical-initiated peroxidation of arachidonic acid. It has been shown that 8-iso-PGF2a (15-F2t-isoprostane) is the isoprostane that correlates best with increasing oxidative stress. Therefore, to assess the effect of treatment on oxidative stress, this isoform was measured using LC-MS. Also measured was tetranor-PGDM, a urinary metabolite of prostaglandin D2. […] On the other hand, elevated tetranor-PGDM was lowered with treatment of 10-nitro-9(E)-octadec-9-enoic acid and enalapril at the end time point (FIG. 18).

[7] = Pharmacokinetic interaction study with pravastatin and Vytorin in healthy males: PK; conditions: Vytorin 10 mg/20 mg, Day 12 with 10-nitro-9(E)-octadec-9-enoic acid 150 mg daily versus Day 2 alone
[8] = tested on: healthy male subjects; test: Pharmacokinetic interaction study in healthy males: safety and tolerability; type: in vivo, human; conditions: pravastatin 40 mg, 10 healthy males
Method: Safety and tolerability was evaluated throughout the study. The timing of discharge was determined by the Investigator or designee based on safety and tolerability assessment. On dosing days, subjects remained in the research unit for a minimum of 1 h after dosing prior to discharge. On Day 4, on the first day of 10-nitro-9(E)-octadec-9-enoic acid dosing, subjects remained in the unit for 4 to 6 h after dosing prior to discharge to assess safety and tolerability.
Safety and PK assessments were evaluated throughout the study. During the in-house portion of the study, urine was collected over the 24-h period on Day 2 and Day 12.
Safety was evaluated by physical examinations; adverse events (AEs); vital signs (blood pressure, heart rate, respiratory rate); clinical laboratory values (hematology, biochemistry, and urinalysis), specifically, serum Mg and CPK and electrocardiograms (ECGs).
Triplicate ECGs were obtained just prior to the start of dosing on Day 1 and single ECGs were obtained at all other time points. The average of the 3 ECG interval measurements at the pre-dose time point was considered as baseline. All 12-Lead ECGs were obtained after the subject has rested in a fully supine position for at least 10 minutes. There were no clinically significant abnormalities reported on any electrocardiogram (ECG) parameter. There were no QT/QTcF interval prolongations observed during the study.

[9] = enalapril 20 mg/kg/d, normalized to 18S, fold changes to control group, mean ± SEM

SMILES: CCOC(=O)[C@H](CCc1ccccc1)N[C@@H](C)C(=O)N1CCC[C@H]1C(=O)O [Enalapril, reference compound]
blood pressure (mean arterial) ([1]; all treatments): none of the treatments, including enalapril, had a significant effect
kidney/body weight and heart/body ratios ([1]; enalapril 20 mg/kg/d in drinking water): no effect
Kim-1 in urine, relative to the DOCA group [2]: trended to be decreased
albumin excretion ([2]; 4 weeks): markedly reduced
plasma cholesterol ([2]; 4 weeks): reduced
urinary nephrin levels ([2]; 4 weeks): markedly reduced
GFR (inulin method) [3]: trend toward an increase
glomerular hypertrophy (glomerular area, mean of 50 glomeruli per kidney) [4]: did not have an effect
glomerulosclerosis: average scores and percent of glomerular damage (sclerosis) [4]: not significantly reduced
gene expression of MCP-1, osteopontin, collagen III, fibronectin and PAI-1 (mRNA, qRT-PCR) ([5]; enalapril 20 mg/kg/d in drinking water, 4 weeks): neither the high dose 10-nitro-9(E)-octadec-9-enoic acid nor enalapril had an effect
Nephrin gene expression [5, 9]: 1.091 ± 0.14
Podocin gene expression [5, 9]: 0.9991 ± 0.095
urinary tetranor-PGDM [6]: lowered

decrease of mean AUC(0-t) on co-administration [7]: 5%
decrease of mean Cmax on co-administration [7]: 20%
SMILES: O=C1[C@H](CC[C@H](O)c2ccc(F)cc2)[C@@H](c2ccc(O)cc2)N1c1ccc(F)cc1 [ezetimibe]

SMILES: CC[C@H](C)C(=O)O[C@H]1C[C@H](O)C=C2C=C[C@H](C)[C@H](CC[C@@H](O)C[C@@H](O)CC(=O)O)[C@H]21 [pravastatin, reference compound]
subjects with abdominal discomfort after administration [8]: 1 subject

increase of mean AUC(0-t) on co-administration [7]: 25%
increase of mean Cmax on co-administration [7]: 10%
SMILES: CCC(C)(C)C(=O)O[C@H]1C[C@@H](C)C=C2C=C[C@H](C)[C@H](CC[C@@H]3C[C@@H](O)CC(=O)O3)[C@H]21 [simvastatin]

Source: patent US10537541B2, “Treatment of focal segmental glomerular sclerosis (FSGS) using therapeutically effective oral doses of 10-nitro-9(E)-octadec-9-enoic acid” (Complexa, Inc., priority 2015, dated 2020)
